Series [1] concerns the target Serine/threonine-protein kinase B-raf (Homo sapiens, UniProt P15056). The series is described as follows: Inhibition of b-Raf.
Series [2] in a line: Inhibition of RSK.
The target of series [3] is Mitogen-activated protein kinase kinase kinase 8 (Homo sapiens, UniProt P41279). The series is described as follows: Inhibition of TPL2.
Series [4] deals with 3-phosphoinositide-dependent protein kinase 1 (Homo sapiens, UniProt O15530). The experiment in a line: Inhibition of PDK1.
Series [5] addresses Mitogen-activated protein kinase 14 (Homo sapiens, UniProt Q16539). The experiment in a line: Inhibition of P38alpha.
A further series deals with A-375. The series is described as follows: Antiproliferative activity against human A375 cells. Type of series: functional, cell-based.
Series [6] addresses Tyrosine-protein kinase Lck (Homo sapiens, UniProt P06239). The series is described as follows: Inhibition of LCK.
Series [7] addresses Protein kinase C alpha type (Homo sapiens, UniProt P17252). The experiment in a line: Inhibition of PKCalpha.
Series [8] has as its target Serine/threonine-protein kinase PLK1 (Homo sapiens, UniProt P53350). The experiment in a line: Inhibition of PLK1.
Series [9] addresses Serine/threonine-protein kinase mTOR (Homo sapiens, UniProt P42345). The series is described as follows: Inhibition of mTOR.
Series [10] addresses Protein kinase C beta type (Homo sapiens, UniProt P05771). The experiment in a line: Inhibition of PKCbeta.
Series [11] can be described thus: Half life in rat microsomes. Type of series: ADME, Microsome.
The nature of series [12]: Inhibition of PKA.
Series [13] concerns the target Rho-associated protein kinase 1 (Homo sapiens, UniProt Q13464). The series is described as follows: Inhibition of ROCK1.
The target in series [14] is Tyrosine-protein kinase Fyn (Homo sapiens, UniProt P06241). The experiment in a line: Inhibition of Fyn.
Series [15] addresses Mitogen-activated protein kinase 8 (Homo sapiens, UniProt P45983). The experiment in a line: Inhibition of JNK1.
The next series deals with Caco-2. The series is described as follows: Antiproliferative activity against human Caco-2 cells. Type of series: functional, cell-based.
Series [16] is described as follows: Metabolic stability in nude mouse microsomes assessed as half life. Type of series: ADME, Microsome.
Series [17] has as its target Mitogen-activated protein kinase 1 (Homo sapiens, UniProt P28482). The experiment in a line: Inhibition of ERK2.
Series [18] concerns the target Tyrosine-protein kinase ABL1 (Homo sapiens, UniProt P00519). The series is described as follows: Inhibition of Abl1.
Series [19] has as its target MAP kinase-activated protein kinase 2 (Homo sapiens, UniProt P49137). The series is described as follows: Inhibition of MK2.
Series [20] is described as follows: Antiproliferative activity against human WM266.4 cells. The series is classed as functional, cell-based. The conditions noted are these: WM 266-4.
A short description of series [21]: Inhibition of p70S6K.
Series [22] addresses Mitogen-activated protein kinase kinase kinase kinase 2 (Homo sapiens, UniProt Q12851). The series is described as follows: Inhibition of GCK.
The next series relates to BXPC-3. The experiment in a line: Antiproliferative activity against human BxPC3 cells. Type of series: functional, cell-based.
The nature of series [23]: Inhibition of CK1gamma.
The target of series [24] is RAC-alpha serine/threonine-protein kinase (Homo sapiens, UniProt P31749). The experiment in a line: Inhibition of PKBalpha.
Series [25] addresses Cyclin-dependent kinase 2 (Homo sapiens, UniProt P24941). The experiment in a line: Inhibition of CDK2.
The next series deals with LoVo. The series is described as follows: Antiproliferative activity against human LoVo cells. The series is classed as functional, cell-based.
The target of series [26] is Proto-oncogene tyrosine-protein kinase Src (Homo sapiens, UniProt P12931). The series is described as follows: Inhibition of Src.
The subject of a further series is HT-29. The experiment in a line: Antiproliferative activity against human HT-29 cells. The series is classed as functional, cell-based.
Series [27] concerns the target Inhibitor of nuclear factor kappa-B kinase subunit beta (Homo sapiens, UniProt O14920). The series is described as follows: Inhibition of IKK-beta.
The nature of series [28]: Permeability at pH 7.4 by PAMPA. Type of series: ADME. The conditions noted are these: read-out: permeability.
Series [29] has as its target Cyclin-dependent kinase 1 (Homo sapiens, UniProt P06493). The series is described as follows: Inhibition of CDK1.
Series [30] concerns the target Insulin-like growth factor 1 receptor (Homo sapiens, UniProt P08069). The experiment in a line: Inhibition of IGFR1.
For series [31], the target named is Serine/threonine-protein kinase Chk1 (Homo sapiens, UniProt O14757). The series is described as follows: Inhibition of CHK1.
The target in series [32] is Phosphatidylinositol 4,5-bisphosphate 3-kinase catalytic subunit alpha isoform (Homo sapiens, UniProt P42336). The experiment in a line: Inhibition of PI3Kalpha.

The results in this text go back to ChEMBL document CHEMBL1156255, “Hit to lead optimization of pyrazolo[1,5-a]pyrimidines as B-Raf kinase inhibitors” (Bioorg Med Chem Lett, 2009).

For orientation: IC50 means the midpoint of a concentration-inhibition curve. A lower IC50 goes with greater potency in that assay. Usually half-life stands for the time needed for the level to fall by half in the phase considered.

Sequence of Serine/threonine-protein kinase B-raf (P15056 whole entry): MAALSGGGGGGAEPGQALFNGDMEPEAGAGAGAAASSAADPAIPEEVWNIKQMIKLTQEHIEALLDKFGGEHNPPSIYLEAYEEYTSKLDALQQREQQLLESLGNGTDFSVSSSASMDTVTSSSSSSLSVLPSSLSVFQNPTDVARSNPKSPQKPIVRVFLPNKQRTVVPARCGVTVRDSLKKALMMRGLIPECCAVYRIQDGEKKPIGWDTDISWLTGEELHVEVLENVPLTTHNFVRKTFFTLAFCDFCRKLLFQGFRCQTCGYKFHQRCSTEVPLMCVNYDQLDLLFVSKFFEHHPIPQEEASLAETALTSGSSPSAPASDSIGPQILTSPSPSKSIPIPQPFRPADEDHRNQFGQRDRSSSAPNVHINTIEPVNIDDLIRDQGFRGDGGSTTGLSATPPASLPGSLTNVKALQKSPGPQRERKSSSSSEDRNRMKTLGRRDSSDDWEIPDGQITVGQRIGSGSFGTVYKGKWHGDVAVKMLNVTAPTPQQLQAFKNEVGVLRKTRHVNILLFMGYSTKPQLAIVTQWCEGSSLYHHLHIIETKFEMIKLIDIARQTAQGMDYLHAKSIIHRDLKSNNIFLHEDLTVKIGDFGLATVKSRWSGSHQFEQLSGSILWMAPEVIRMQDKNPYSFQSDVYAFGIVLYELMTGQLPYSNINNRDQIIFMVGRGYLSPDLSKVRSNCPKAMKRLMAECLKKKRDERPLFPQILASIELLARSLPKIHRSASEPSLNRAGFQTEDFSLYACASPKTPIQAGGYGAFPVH
Sequence of Mitogen-activated protein kinase 14 (Q16539 whole entry): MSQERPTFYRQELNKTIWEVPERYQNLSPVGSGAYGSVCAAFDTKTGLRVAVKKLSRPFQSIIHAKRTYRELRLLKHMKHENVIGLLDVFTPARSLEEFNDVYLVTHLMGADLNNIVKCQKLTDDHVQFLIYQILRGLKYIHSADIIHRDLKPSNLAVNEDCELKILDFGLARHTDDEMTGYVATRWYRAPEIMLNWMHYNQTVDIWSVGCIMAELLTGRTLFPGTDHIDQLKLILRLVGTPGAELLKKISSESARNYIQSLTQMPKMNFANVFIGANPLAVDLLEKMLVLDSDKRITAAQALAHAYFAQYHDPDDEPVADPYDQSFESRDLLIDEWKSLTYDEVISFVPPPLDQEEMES
Sequence of Tyrosine-protein kinase Lck (P06239 whole entry): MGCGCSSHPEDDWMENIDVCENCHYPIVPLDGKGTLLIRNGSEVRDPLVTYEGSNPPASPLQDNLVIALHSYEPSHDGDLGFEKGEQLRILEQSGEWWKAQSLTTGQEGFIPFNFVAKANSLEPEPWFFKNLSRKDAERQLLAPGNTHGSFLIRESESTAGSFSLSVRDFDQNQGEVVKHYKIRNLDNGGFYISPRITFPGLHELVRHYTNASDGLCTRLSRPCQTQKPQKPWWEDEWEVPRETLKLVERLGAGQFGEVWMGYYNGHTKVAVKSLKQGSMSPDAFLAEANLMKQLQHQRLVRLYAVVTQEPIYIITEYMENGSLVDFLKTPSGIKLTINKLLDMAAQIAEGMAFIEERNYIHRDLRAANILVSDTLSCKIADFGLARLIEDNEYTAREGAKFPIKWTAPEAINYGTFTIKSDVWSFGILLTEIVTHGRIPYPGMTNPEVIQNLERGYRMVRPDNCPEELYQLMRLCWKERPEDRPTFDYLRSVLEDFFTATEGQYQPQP
Sequence of MAP kinase-activated protein kinase 2 (P49137 whole entry): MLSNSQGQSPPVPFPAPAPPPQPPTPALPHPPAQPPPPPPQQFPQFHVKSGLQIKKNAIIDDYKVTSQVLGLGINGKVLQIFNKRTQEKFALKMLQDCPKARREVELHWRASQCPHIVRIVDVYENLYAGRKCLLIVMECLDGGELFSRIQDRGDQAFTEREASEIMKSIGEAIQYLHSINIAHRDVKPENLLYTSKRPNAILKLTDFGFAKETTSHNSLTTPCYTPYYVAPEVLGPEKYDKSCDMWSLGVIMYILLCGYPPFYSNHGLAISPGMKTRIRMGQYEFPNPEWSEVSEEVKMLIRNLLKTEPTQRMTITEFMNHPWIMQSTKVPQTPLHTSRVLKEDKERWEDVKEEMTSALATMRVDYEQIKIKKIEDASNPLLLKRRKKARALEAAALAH
Sequence of Inhibitor of nuclear factor kappa-B kinase subunit beta (O14920 whole entry): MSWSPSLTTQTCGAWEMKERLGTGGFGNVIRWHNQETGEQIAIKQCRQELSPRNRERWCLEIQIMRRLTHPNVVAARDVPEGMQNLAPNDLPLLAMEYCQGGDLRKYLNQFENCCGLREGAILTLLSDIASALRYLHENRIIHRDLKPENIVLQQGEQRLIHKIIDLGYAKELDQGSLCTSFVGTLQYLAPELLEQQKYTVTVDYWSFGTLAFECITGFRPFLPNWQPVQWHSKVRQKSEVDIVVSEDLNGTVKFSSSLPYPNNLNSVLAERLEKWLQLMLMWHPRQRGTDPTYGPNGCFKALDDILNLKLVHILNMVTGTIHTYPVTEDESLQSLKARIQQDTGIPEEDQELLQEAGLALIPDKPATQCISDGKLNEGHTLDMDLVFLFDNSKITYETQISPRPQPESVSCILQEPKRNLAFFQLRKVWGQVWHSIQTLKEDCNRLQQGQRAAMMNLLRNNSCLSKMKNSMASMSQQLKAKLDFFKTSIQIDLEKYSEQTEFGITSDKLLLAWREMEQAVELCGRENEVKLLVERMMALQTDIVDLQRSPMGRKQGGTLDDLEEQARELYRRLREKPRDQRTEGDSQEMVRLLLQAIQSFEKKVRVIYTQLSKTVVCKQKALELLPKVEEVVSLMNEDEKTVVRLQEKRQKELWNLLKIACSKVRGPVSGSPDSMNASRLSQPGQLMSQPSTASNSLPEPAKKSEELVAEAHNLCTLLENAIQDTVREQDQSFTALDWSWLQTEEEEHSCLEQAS
Sequence of Mitogen-activated protein kinase kinase kinase kinase 2 (Q12851 whole entry): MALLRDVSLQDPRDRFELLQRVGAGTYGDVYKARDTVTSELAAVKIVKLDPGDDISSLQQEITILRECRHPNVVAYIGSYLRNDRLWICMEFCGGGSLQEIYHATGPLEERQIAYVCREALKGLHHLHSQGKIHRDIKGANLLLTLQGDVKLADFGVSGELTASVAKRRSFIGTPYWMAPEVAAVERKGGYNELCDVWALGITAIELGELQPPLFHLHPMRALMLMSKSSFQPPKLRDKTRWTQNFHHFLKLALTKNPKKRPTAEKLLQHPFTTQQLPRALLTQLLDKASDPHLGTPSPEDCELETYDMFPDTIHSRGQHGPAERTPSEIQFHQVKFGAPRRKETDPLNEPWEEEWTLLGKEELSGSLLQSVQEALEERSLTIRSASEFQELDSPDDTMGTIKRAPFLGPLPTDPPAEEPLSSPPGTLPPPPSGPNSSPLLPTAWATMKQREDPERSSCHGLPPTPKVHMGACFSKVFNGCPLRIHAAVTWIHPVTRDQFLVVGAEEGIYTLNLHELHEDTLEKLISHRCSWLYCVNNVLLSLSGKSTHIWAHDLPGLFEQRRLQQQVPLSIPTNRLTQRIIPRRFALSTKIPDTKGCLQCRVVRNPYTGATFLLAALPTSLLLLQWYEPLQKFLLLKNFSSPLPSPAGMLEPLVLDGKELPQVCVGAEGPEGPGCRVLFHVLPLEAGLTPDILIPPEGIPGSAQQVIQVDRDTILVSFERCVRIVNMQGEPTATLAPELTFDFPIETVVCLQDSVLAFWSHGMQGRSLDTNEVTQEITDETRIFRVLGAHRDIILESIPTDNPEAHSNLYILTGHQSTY
Sequence of Insulin-like growth factor 1 receptor (P08069 31-736 limits assumed): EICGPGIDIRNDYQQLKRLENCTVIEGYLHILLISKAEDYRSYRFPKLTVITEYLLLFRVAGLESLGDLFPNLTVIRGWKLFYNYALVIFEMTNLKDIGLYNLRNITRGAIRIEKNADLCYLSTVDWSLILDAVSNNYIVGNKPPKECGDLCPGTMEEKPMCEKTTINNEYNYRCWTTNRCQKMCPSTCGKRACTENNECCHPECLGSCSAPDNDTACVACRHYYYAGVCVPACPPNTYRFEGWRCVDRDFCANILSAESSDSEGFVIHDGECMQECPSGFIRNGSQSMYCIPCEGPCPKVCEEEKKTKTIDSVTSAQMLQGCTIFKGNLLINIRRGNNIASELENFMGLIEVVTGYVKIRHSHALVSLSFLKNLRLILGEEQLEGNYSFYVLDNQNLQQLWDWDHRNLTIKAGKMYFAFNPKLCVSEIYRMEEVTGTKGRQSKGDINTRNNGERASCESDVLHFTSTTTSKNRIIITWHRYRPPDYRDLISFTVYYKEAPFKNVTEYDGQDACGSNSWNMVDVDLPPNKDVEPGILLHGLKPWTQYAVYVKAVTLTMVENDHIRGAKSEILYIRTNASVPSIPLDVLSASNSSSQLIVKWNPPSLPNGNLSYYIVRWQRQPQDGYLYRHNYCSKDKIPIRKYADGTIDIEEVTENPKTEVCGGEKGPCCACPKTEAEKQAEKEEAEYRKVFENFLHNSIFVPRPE
Sequence of Insulin-like growth factor 1 receptor (P08069 741-1367 limits assumed): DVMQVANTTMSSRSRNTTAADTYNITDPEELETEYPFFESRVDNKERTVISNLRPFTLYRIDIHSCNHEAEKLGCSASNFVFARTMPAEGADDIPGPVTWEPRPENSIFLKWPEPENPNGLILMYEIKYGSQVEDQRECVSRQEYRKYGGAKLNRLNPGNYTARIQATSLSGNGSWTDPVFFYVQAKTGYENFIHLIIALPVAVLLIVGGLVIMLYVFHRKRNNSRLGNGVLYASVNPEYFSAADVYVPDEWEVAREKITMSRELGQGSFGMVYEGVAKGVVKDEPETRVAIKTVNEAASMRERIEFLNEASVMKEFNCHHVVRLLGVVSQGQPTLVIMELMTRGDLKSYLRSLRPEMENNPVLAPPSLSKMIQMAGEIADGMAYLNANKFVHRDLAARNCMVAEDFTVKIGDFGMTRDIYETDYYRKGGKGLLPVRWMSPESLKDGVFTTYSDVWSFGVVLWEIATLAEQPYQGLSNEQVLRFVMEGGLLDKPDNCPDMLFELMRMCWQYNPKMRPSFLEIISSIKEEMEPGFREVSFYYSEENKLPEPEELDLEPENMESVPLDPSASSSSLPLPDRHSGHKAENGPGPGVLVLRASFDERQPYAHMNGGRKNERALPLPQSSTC

As for `O=C(Nc1cccc(-c2ccnc3cc(-c4ccncc4)nn23)c1)c1ccc(Cl)c(Cl)c1`, in [1], it took 0.66 µM to reach half-maximal inhibition (IC50).

For `O=C(Nc1cccc(-c2ccnc3cc(-c4cccnc4)nn23)c1)c1cccc(C(F)(F)F)c1`, in series [1], the IC50 is > 10 µM.

`O=C(Nc1cccc(-c2ccnc3cc(-c4ccncc4)nn23)c1)c1cccc(C(F)(F)F)c1`: the IC50 in series [2] is > 50 µM; in [3] it was > 50 µM; in series [4], > 50 µM; in series [5] it was > 50 µM; in the series with A-375 it was 0.28 µM; in series [6], > 50 µM. Moreover, the IC50 in [7], in series [8], in series [9], in [10], in series [12] and in [13] was > 50 µM each time. The IC50 is > 50 µM in series [14]; > 50 µM in series [15]; 2.6 µM with Caco-2; > 50 µM in series [17]; > 50 µM in series [18]; > 50 µM in series [19]. For the same compound, the IC50 was 3.5 µM in series [20]; > 50 µM in [21]; > 50 µM in series [22]; 3.1 µM with BXPC-3; > 50 µM in series [23]; > 50 µM in [24]. For the same compound, the IC50 in series [25] is > 50 µM; in the series on LoVo, 0.4 µM; in [26], > 50 µM; in the series with HT-29 it was 0.35 µM; in series [27] it was > 50 µM; in series [29] it was > 50 µM. The IC50 in [30], in [31] and in series [32] was > 50 µM throughout. In addition, the half-life in [11] was > 30 min; in series [16] it was 24 min. For the same compound, the Papp in series [28] was determined as 251 ×10⁻⁶ cm/s.

In [1], `O=C(Nc1cccc(-c2ccnc3cc(-c4ccnc(NCCCN5CCCC5=O)c4)nn23)c1)c1cccc(C(F)(F)F)c1` returned an IC50 of 0.11 µM.

`O=C(Nc1cccc(-c2ccnc3cc(-c4ccnc(NCCCN5CCOCC5)c4)nn23)c1)c1cccc(C(F)(F)F)c1`: half-maximal inhibition in series [1] (IC50) required 0.13 µM.

For `Cn1cncc1-c1cc2nccc(-c3cccc(NC(=O)c4cccc(C(F)(F)F)c4)c3)n2n1`, the IC50 in [1] came out at 0.1 µM.

Consider `O=C(Nc1cccc(-c2ccnc3cc(-c4cnc[nH]4)nn23)c1)c1cccc(C(F)(F)F)c1`, for which, in [1], the 50% inhibitory concentration (IC50) came to 1.6 µM.

As to `O=C(Nc1cccc(-c2ccnc3cc(-c4ccncc4)nn23)c1)c1ccc(Cl)c(C(F)(F)F)c1`, in [1], half-maximal inhibition (IC50) required 0.06 µM.

In [1], `O=C(Nc1cccc(-c2ccnc3cc(-c4ccnc(NCCCc5ncc[nH]5)c4)nn23)c1)c1cccc(C(F)(F)F)c1` had an IC50 of 0.066 µM.

For `O=C(Nc1cccc(-c2ccnc3cc(-c4ccncc4)nn23)c1)Nc1ccc(Cl)c(C(F)(F)F)c1`, in series [1], the IC50 was 0.04 µM.
